# From patent US20110039816A1, “THERAPEUTIC SUBSTANCE, PHARMACEUTICAL COMPOSITION, HELICOBACTER PYLORI GROWTH INHIBITOR AND METHOD FOR CONDUCTING ANTI-HELICOBACTER THERAPY” (priority 2007, published 2011)
# Entries after “also recorded” stand apart in the source; their conditions may differ.
# Test system: H. pylori
# Assay: Effect of comparator drugs and CGNC on the growth of H. pylori patient strains
# Assay type: cell-based, Helicobacter pylori
# Set-up: key to Effect on the growth of H. pylori: (+) - inhibition of growth; (−) - no inhibition of growth
# Conditions: for Effect on growth of H. pylori: strains 782, 785, 786, 787
# Method: The effect of the following doses of CGNC was examined: 50, 100, and 300 mg/ml. Bacteriological methods were used to conduct the study. Three doses of CGNC (50, 100 and 300 mg/ml) were used for analysis of the CGNC effect on the growth of H. pylori. Serial dilutions, of dense nutrient media containing an increasing concentration of the test substance were set up. Isolates of H. pylori inoculated on standard for this type of bacteria mediums (without CGNC) were used to control the microbial growth. The effect of the test substance was compared with the effect of the placebo (sterile saline solution—0.15 M NaCl, pH 7.0-7.2). In a comparative experiment, the effect of the antimicrobials, amoxicillin (20 μg/ml) and metronidazole (80 μg/ml), were evaluated.
# Metronidazole and amoxicillin, the most common used therapeutical substances in combined anti-helicobacter therapy, were chosen as comparator-drugs. H. pylori isolated from patients (No. 782, 785, 786, 787), were used to compare the effect of CGNC (300 mg/ml), amoxicillin (20 μg/ml) and metronidazole (80 μg/ml) (Table 3). These strains were isolated from patients with chronic gastroduodenitis, gastritis associated with gastric stump, duodenal ulcer and reflux esophagitis.
SMILES,Effect on growth of H. pylori (amoxicillin 20 μg/ml),"Effect on the growth of H. pylori (strain 782 (CGD), Amoxicillin 20 μg/ml)","Effect on the growth of H. pylori (strain 785 (gastritis associated with gastric stump), Amoxicillin 20 μg/ml)","Effect on the growth of H. pylori (strain 786 (DU, reflux esophagitis), Amoxicillin 20 μg/ml)","Effect on the growth of H. pylori (strain 787 (CGD), Amoxicillin 20 μg/ml)",Effect on growth of H. pylori (metronidazole 80 μg/ml),"Effect on the growth of H. pylori (strain 782 (CGD), Metronidazole 80 μg/ml)","Effect on the growth of H. pylori (strain 785 (gastritis associated with gastric stump), Metronidazole 80 μg/ml)","Effect on the growth of H. pylori (strain 786 (DU, reflux esophagitis), Metronidazole 80 μg/ml)","Effect on the growth of H. pylori (strain 787 (CGD), Metronidazole 80 μg/ml)"
CC1(C)S[C@@H]2[C@H](NC(=O)[C@H](N)c3ccc(O)cc3)C(=O)N2[C@H]1C(=O)O [Amoxicillin],inhibited the growth; also recorded: inhibition of growth occurred,+,+,+,+,,,,,
Cc1ncc([N+](=O)[O-])n1CCO [Metronidazole],,,,,,did not have an inhibiting effect; also recorded: did not inhibit the growth,−,−,−,−
